# Laboratory results reported in article PMC10426190 (Breast Cancer Research : BCR, 2023).
# Where a chain is given by its changes, count along the chain named. Like-named read-outs stand apart in the source and are kept apart here.
# What was measured:
# [1] = tested on: GREB1, AGR3 transcription in T47D, EFM-19, HCC1500; experiment: ER pathway activity, RT-QPCR of GREB1 and AGR3; format: cell-based, human; details: 1 μM, 1 nM E2, 24 h
# Procedure: HCC1500, T47D, and EFM-19 were cultured in hormone deprivation media with 10% charcoal-stripped FBS for at least 3 days before assay. Trypsinized cells were seeded in a 12-well plate, stimulated with 1 nM E2, and treated with/without 1 μM compounds for 24 h. Total RNA was extracted using QIAGEN RNeasy Plus Mini Kit (Qiagen), according to the manufacturer’s protocol. The concentration of RNA samples was determined using NanoDrop 8000 (Thermo Scientific). SYBR Green expression assay (Qiagen#204154) was used to quantify GREB1 (Forward primer: […]; reverse primer: […]), AGR3 (Forward primer: […]; reverse primer: […]) and the house-keeping genes actin (OriGene#HP204660). The relative quantities were determined using ΔΔ threshold cycle (ΔΔCt), according to the manufacturer’s instructions (Applied Biosystems).
# MCF7 with hormone-deprived pre-treatment were administrated ER ligands or not present with 1 nM E2 stimulation for 24 h incubation in a 12-well plate. Total mRNA was isolated from treated cells and sequenced on an Illumina HiSeq X Ten platform. FPKM of each gene was calculated using Cufflinks and Differential expression genes analysis by using the DESeq (2012) R package. Four separate clusters were obtained. […] Endometrial height was assessed from the basement membrane to the luminal border (scale bar in green lines: 200 μm), Arrows indicate the uterine epithelium (e).
# advanced breast cancer = details: cited from earlier work; for PFS: second-line
# ERα Y537S mutant = molecular target: T1, ERα Y537S mutant (Homo sapiens, UniProt P03372, Y537S); experiment: ERα degradation assay, In-Cell Western, MCF-7 Y537S; format: cell-based; details: 24 h
# T1 construct: MCF-7 wild type and Y537S mutant cells were seeded; host or cells: MCF7 expressing ER Y537S
# T1 sequence (P03372 1-595 Y537S): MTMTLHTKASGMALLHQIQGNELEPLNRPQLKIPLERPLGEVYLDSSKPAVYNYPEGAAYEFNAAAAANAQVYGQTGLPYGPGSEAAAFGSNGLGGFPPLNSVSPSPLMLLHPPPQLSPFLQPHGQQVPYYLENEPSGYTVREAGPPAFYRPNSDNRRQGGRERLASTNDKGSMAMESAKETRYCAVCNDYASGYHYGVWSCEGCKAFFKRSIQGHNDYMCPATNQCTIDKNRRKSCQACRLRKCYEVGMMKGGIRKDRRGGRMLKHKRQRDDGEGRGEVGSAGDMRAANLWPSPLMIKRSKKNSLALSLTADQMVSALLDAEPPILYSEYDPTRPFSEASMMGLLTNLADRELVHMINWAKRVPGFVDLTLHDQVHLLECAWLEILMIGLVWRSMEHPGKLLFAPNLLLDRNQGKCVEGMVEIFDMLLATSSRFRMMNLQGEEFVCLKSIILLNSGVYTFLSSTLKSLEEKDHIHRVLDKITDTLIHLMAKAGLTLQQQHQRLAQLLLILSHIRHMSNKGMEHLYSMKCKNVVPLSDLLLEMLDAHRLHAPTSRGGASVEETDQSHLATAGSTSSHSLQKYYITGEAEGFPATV
# Procedure: (§1) MCF-7 wild type and Y537S mutant cells were seeded at a density of 5000 cells per well into flat clear bottom tissue cultured-treated 384-well plates (Greiner) in culture media and after overnight incubation cells were treated with compounds for 24 h. Then plates were fixed with 4% formaldehyde, permeabilized with ice-cold methanol, and blocked with Odyssey Blocking Buffer (LI-COR). The fixed cells were incubated with rabbit anti- ERα antibody (CST#8644S) and mouse anti-GAPDH antibody (Abcam #ab8245), washed and stained with IRDye 800 Goat anti-Rabbit IgG (Licor#926-32211) and IRDye 680 Goat anti-Mouse IgG (Licor#926-68070). ERα levels were quantitated using Sapphire RGBNIR (Azure), the acumen eX3 imaging system. […] IC50 and Emax were analyzed with IDBS XLfit.
# ERα = molecular target: T2, ERα (Homo sapiens, UniProt P03372); experiment: ERα degradation assay, In-Cell Western, MCF-7 WT; format: cell-based; parameters: MCF-7 wild type and Y537S mutant cells were seeded at a density of 5000 cells per well; host or cells: MCF-7; details: 24 h
# T2 sequence (P03372 1-595): T1 sequence (P03372 1-595 Y537S) with S537Y
# Procedure: as §1
# MCF7 cells were seeded in a 384-well plate and linear-dilution compounds were administrated in duplicate for each treatment. After incubation for 24 h, Cells in the assay pate were treated as described in methods. ERα levels were quantified by immunofluorescence assay. […] Cells were dispended into 96-well plates and incubated for 24 h with compounds (100 nM) treatment. […] Cells were seeded in 384-well plates and treated with linear-dilution compounds for 7 days of incubation. Cell viability was assessed using CellTiter-Glo. Cell growth inhibition is presented as a percentage of CellTiterGlo activity relative to the vehicle control. […] Then cells in each well were collected and the targeting proteins in lysate supernatant were detected by WB
# Cells were seeded at a density of 5,000 cells per well into 384-well plates and treated with linear-titration compounds in duplicate for 24 hours. ERα levels were quantified by immunofluorescence assay as described in the method. The detection signals were captured by Odyssey.
Compound,AGR3 transcription ([1]; EFM-19 and HCC1500),OS (advanced breast cancer; 250 mg dose regimen ref 16),OS (advanced breast cancer; Fulvestrant HD 500 mg ref 16),PFS (advanced breast cancer; higher value of 6.5 vs. 5.5 (Fulvestrant HD 500 mg) ref 16),PFS (advanced breast cancer; lower value of 6.5 vs. 5.5 (250 mg dose regimen) ref 16),ERα degradation assay Dmax [% Ful.] (ERα Y537S mutant),ERα degradation assay Dmax [% Veh.] (ERα Y537S mutant),ERα degradation assay Dmax [% Ful.] (ERα),ERα degradation assay Dmax [% Veh.] (ERα),"AGR3 and GREB1 transcription ([1]; T47D, EFM-19, and HCC1500)"
CC/C(=C(\c1ccc(O)cc1)c1ccc(OCCN(C)C)cc1)c1ccccc1 [4-OH-tamoxifen],significant increase,–,–,–,–,–,–,–,–,–
C[C@]12CC[C@@H]3c4ccc(O)cc4C[C@@H](CCCCCCCCC[S+]([O-])CCCC(F)(F)C(F)(F)F)[C@H]3[C@@H]1CC[C@@H]2O (stereo partly shown) [Fulvestrant],–,22.3 months,26.4 months,6.5 months,5.5 months,87.09 % Ful.,26.38 % Veh.,97.69 % Ful.,56.04 % Veh.,significantly downregulated
